Measured values reported in patent US9650379B2 (CHONG KUN DANG PHARMACEUTICAL CORP., priority 2013, dated 2017).

Experiments:
HDAC6 human recombinant = molecular target: T1, HDAC6 human recombinant (Homo sapiens, UniProt Q9UBN7); assay: Inhibition of HDAC6 activity (fluorimetric assay); format: biochemical; conditions: test concentrations 0.1, 1, 10, 100 and 1000 nM; 37° C., 60 minutes
T1 construct: purchased Calbiochem 382180
T1 sequence (Q9UBN7 1-1215): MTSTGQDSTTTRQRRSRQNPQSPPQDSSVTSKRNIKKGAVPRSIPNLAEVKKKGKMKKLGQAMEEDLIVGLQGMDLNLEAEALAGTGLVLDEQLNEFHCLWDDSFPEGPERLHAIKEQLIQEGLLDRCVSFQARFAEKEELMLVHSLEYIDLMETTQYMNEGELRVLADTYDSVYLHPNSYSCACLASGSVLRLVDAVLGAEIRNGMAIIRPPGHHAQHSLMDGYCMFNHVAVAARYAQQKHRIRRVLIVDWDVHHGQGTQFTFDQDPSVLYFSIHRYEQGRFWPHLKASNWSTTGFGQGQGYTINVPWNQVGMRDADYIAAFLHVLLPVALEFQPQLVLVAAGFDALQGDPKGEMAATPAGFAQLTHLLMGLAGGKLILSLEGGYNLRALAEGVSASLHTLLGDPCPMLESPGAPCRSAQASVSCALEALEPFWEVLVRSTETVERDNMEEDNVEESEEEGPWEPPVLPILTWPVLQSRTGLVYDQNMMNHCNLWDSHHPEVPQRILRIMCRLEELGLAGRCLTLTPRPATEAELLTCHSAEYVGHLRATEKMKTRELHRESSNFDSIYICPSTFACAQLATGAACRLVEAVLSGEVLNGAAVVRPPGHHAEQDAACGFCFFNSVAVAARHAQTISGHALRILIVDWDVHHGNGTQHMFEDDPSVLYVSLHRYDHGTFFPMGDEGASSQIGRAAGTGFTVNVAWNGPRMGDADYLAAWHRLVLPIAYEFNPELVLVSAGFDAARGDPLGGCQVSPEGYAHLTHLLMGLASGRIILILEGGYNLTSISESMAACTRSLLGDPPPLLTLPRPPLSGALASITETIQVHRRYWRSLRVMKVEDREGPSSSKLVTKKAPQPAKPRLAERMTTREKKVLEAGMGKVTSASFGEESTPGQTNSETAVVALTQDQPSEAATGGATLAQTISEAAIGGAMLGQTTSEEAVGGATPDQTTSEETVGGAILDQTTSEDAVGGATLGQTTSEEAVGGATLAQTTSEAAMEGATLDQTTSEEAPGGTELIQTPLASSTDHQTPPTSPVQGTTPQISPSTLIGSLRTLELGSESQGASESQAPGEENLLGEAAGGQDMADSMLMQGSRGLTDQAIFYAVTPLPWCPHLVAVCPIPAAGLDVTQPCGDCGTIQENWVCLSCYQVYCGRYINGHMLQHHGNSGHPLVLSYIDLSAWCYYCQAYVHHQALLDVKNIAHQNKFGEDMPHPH
Protocol: (§1) Assays were performed using a HDAC1 fluorimetric drug discovery assay kit (Enzolifesciences: BML-AK511) and a HDAC6 human recombinant (Calbiochem: 382180). The assay mixture of the kit was treated with a test compound at concentrations of 100, 1000 and 10000 nM for HDAC1 assay and concentrations of 0.1, 1, 10, 100 and 1000 nM for HDAC6 assay. The treated assay mixture was allowed to react at 37° C. for 60 minutes, and then was treated with a developer and allowed to stand at 37° C. for 30 minutes, followed by quantification of the fluorescence.

HDAC1 = molecular target: T2, HDAC1 (Homo sapiens, UniProt Q13547); assay: Inhibition of HDAC1 activity (HDAC1 fluorimetric drug discovery assay kit); format: biochemical; conditions: test concentrations 100, 1000 and 10000 nM; 37° C., 60 minutes
T2 construct: purchased Enzolifesciences BML-AK511
T2 sequence (Q13547 whole entry): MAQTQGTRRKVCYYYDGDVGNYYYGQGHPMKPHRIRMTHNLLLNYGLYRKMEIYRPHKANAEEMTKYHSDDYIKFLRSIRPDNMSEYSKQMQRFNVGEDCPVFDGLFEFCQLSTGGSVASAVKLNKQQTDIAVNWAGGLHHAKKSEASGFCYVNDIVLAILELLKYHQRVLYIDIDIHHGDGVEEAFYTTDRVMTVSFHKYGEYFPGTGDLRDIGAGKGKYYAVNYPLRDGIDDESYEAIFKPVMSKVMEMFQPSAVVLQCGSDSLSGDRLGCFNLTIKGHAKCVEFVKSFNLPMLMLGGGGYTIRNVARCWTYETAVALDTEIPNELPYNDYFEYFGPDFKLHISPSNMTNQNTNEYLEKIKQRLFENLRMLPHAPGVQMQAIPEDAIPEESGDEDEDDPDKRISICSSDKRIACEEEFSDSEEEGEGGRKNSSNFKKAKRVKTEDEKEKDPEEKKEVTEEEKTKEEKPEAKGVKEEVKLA
Protocol: as §1

SMILES: CC(C)(O)CN1CCC(c2cnc3c(ccn3Cc3ccc(C(=O)NO)cc3)c2)CC1 [Compound 714, N-hydroxy-4-((5-(1-(2-hydroxy-2-methylpropyl)piperidin-4-yl)-1H-pyrrolo[2,3-b]pyridin-1-yl)methyl)benzamide]
- IC50 (HDAC6 human recombinant): 12 nM
- IC50 (HDAC1): 1200 nM

SMILES: COc1ccc(CN2CCC(c3cnc4c(ccn4Cc4ccc(C(=O)NO)cc4)c3)CC2)cn1 [Compound 1098, N-hydroxy-4-((5-(1-((6-methoxypyridin-3-yl)methyl)piperidin-4-yl)-1H-pyrrolo[2,3-b]pyridin-1-yl)methyl)benzamide]
- IC50 (HDAC6 human recombinant): 5230 nM

SMILES: O=C(O)CCN1CCC(c2ccnc3c2ccn3Cc2ccc(C(=O)NO)cc2)CC1 [Compound 927, 3-(4-(1-(4-(hydroxycarbamoyl)benzyl)-1H-pyrrolo[2,3-b]pyridin-4-yl)piperidin-1-yl)propionic acid]
- IC50 (HDAC6 human recombinant): 4.5 nM
- IC50 (HDAC1): 830 nM

SMILES: O=C(NO)c1ccc(Cn2ccc3c(C4CCN(C(=O)c5cccc(F)c5)CC4)ccnc32)cc1 [Compound 860, 4-((4-(1-(3-fluorobenzoyl)piperidin-4-yl)-1H-pyrrolo[2,3-b]pyridin-1-yl)methyl)-N-hydroxybenzamide]
- IC50 (HDAC6 human recombinant): 2.5 nM
- IC50 (HDAC1): 120 nM

SMILES: CN1CCN(Cc2cccc(CN3CCC(c4cnc5c(ccn5Cc5ccc(C(=O)NO)cc5)c4)CC3)c2)CC1 [Compound 879, N-hydroxy-4-((5-(1-(3-((4-methylpiperazin-1-yl)methyl)benzyl)piperidin-4-yl)-1H-pyrrolo[2,3-b]pyridin-1-yl)methyl)benzamide]
- IC50 (HDAC6 human recombinant): 7.6 nM
- IC50 (HDAC1): 1050 nM

SMILES: CN1CCC(c2cnc3c(ccn3Cc3ccc(C(=O)NO)cc3)c2)CC1 [Compound 867, N-hydroxy-4-((5-(1-methylpiperidin-4-yl)-1H-pyrrolo[2,3-b]pyridin-1-yl)methyl)benzamide]
- IC50 (HDAC6 human recombinant): 7.8 nM
- IC50 (HDAC1): 620 nM

SMILES: O=C(NO)c1ccc(Cn2ccc3cc(-c4cccnc4)cnc32)cc1 [Compound 103]
- IC50 (HDAC6 human recombinant): 0.26 nM
- IC50 (HDAC1): 382 nM

SMILES: O=C(NO)c1ccc(Cn2ccc3c(-c4ccc(F)cc4F)ccnc32)cc1 [Compound 658, 4-((4-(2,4-difluorophenyl)-1H-pyrrolo[2,3-b]pyridin-1-yl)methyl)-N-hydroxybenzamide]
- IC50 (HDAC6 human recombinant): 21 nM
- IC50 (HDAC1): 1950 nM

SMILES: CC(C)(O)CN1CC=C(c2cnc3c(ccn3Cc3ccc(C(=O)NO)cc3)c2)CC1 [Compound 686, N-hydroxy-4-((5-(1-(2-hydroxy-2-methylpropyl)-1,2,3,6-tetrahydropyridin-4-yl)-1H-pyrrolo[2,3-b]pyridin-1-yl)methyl)benzamide]
- IC50 (HDAC6 human recombinant): 39 nM
- IC50 (HDAC1): 2740 nM

SMILES: O=C(NO)c1ccc(Cn2ccc3cc(C4CCOCC4)cnc32)cc1 [Compound 635, N-hydroxy-4-((5-(tetrahydro-2H-pyran-4-yl)-1H-pyrrolo[2,3-b]pyridin-1-yl)methyl)benzamide]
- IC50 (HDAC6 human recombinant): 11 nM
- IC50 (HDAC1): 1170 nM

SMILES: CC(C)(F)C(=O)N1CCC(c2ccnc3c2ccn3Cc2ccc(C(=O)NO)cc2)CC1 [Compound 858, 4-((4-(1-(2-fluoro-2-methylpropanoyl)piperidin-4-yl)-1H-pyrrolo[2,3-b]pyridin-1-yl)methyl)-N-hydroxybenzamide]
- IC50 (HDAC6 human recombinant): 3.6 nM
- IC50 (HDAC1): 60 nM

SMILES: CN1CC=C(c2cnc3c(ccn3Cc3ccc(C(=O)NO)cc3)c2)CC1 [Compound 647, N-hydroxy-4-((5-(1-methyl-1,2,3,6-tetrahydropyridin-4-yl)-1H-pyrrolo[2,3-b]pyridin-1-yl)methyl)benzamide]
- IC50 (HDAC6 human recombinant): 15 nM
- IC50 (HDAC1): 1170 nM

SMILES: O=C(NO)c1ccc(Cn2ccc3c(N4CCN(c5cnc(C(F)(F)F)cn5)CC4)ccnc32)cc1 [Compound 701, N-hydroxy-4-((4-(4-(5-(trifluoromethyl)pyrazin-2-yl)piperazin-1-yl)-1H-pyrrolo[2,3-b]pyridin-1-yl)methyl)benzamide]
- IC50 (HDAC6 human recombinant): 23 nM
- IC50 (HDAC1): 1530 nM

SMILES: CC(C)(C)OC(=O)N1CC=C(c2ccnc3c2ccn3Cc2ccc(C(=O)NO)cc2)CC1 [Compound 784]
- IC50 (HDAC6 human recombinant): 16 nM
- IC50 (HDAC1): 930 nM

SMILES: CCc1cnc(N2CCN(c3ccnc4c3ccn4Cc3ccc(C(=O)NO)cc3)CC2)nc1 [Compound 702, 4-((4-(4-(5-ethylpyrimidin-2-yl)piperazin-1-yl)-1H-pyrrolo[2,3-b]pyridin-1-yl)methyl)-N-hydroxybenzamide]
- IC50 (HDAC6 human recombinant): 16 nM
- IC50 (HDAC1): 1040 nM

SMILES: CC(C)(C)OC(=O)N1CCC(F)(CN2CCN(c3ccnc4c3ccn4Cc3ccc(C(=O)NO)cc3)CC2)CC1 [Compound 760, tert-butyl 4-fluoro-4-((4-(1-(4-(hydroxycarbamoyl)benzyl)-1H-pyrrolo[2,3-b]pyridin-4-yl)piperazin-1-yl)methyl)piperidine-1-carboxylate]
- IC50 (HDAC6 human recombinant): 37 nM
- IC50 (HDAC1): 3210 nM

SMILES: O=C(NO)c1ccc(Cn2ccc3c(N4CCC5(CCN(Cc6cccnc6)C5)CC4)ccnc32)cc1 [Compound 1022, N-hydroxy-4-((4-(2-(pyridin-3-ylmethyl)-2,8-diazaspiro[4.5]decan-8-yl)-1H-pyrrolo[2,3-b]pyridin-1-yl)methyl)benzamide]
- IC50 (HDAC6 human recombinant): 5.8 nM
- IC50 (HDAC1): 70 nM

SMILES: O=C(NO)c1ccc(Cn2ccc3c(C4CCN(Cc5ccc(CN6CCOCC6)cc5)CC4)ccnc32)cc1 [Compound 987, N-hydroxy-4-((4-(1-(4-(morpholinomethyl)benzyl)piperidin-4-yl)-1H-pyrrolo[2,3-b]pyridin-1-yl)methyl)benzamide]
- IC50 (HDAC6 human recombinant): 5.7 nM
- IC50 (HDAC1): 320 nM

SMILES: COc1ccc(CN2CC3(CCN(c4cnc5c(ccn5Cc5ccc(C(=O)NO)cc5)c4)CC3)C2)cc1 [Compound 1125, N-hydroxy-4-((5-(2-(4-methoxybenzyl)-2,7-diazaspiro[3.5]nonan-7-yl)-1H-pyrrolo[2,3-b]pyridin-1-yl)methyl)benzamide]
- IC50 (HDAC6 human recombinant): 1.8 nM

SMILES: CC(C)(F)CN1CCC(c2cnc3c(ccn3Cc3ccc(C(=O)NO)cc3)c2)CC1 [Compound 618, 4-((5-(1-(2-fluoro-2-methylpropyl)piperidin-4-yl)-1H-pyrrolo[2,3-b]pyridin-1-yl)methyl)-N-hydroxybenzamide]
- IC50 (HDAC6 human recombinant): 16 nM
- IC50 (HDAC1): 1300 nM

SMILES: O=C(NO)c1ccc(Cn2ccc3cc(C4CCN(Cc5ccccc5F)CC4)cnc32)cc1 [Compound 839, 4-((5-(1-(2-fluorobenzyl)piperidin-4-yl)-1H-pyrrolo[2,3-b]pyridin-1-yl)methyl)-N-hydroxybenzamide]
- IC50 (HDAC6 human recombinant): 17.5 nM
- IC50 (HDAC1): 1910 nM

SMILES: O=C(NO)c1ccc(Cn2ccc3cc(C4CCN(Cc5cccnc5)CC4)cnc32)cc1 [Compound 840, N-hydroxy-4-((5-(1-(pyridin-3-ylmethyl)piperidin-4-yl)-1H-pyrrolo[2,3-b]pyridin-1-yl)methyl)benzamide]
- IC50 (HDAC6 human recombinant): 4.1 nM
- IC50 (HDAC1): 610 nM

SMILES: O=C(NO)c1ccc(Cn2ccc3c(-c4cccc(CN5CCOCC5)c4)ccnc32)cc1 [Compound 761, N-hydroxy-4-((4-(3-(morpholinomethyl)phenyl)-1H-pyrrolo[2,3-b]pyridin-1-yl)methyl)benzamide]
- IC50 (HDAC6 human recombinant): 9 nM
- IC50 (HDAC1): 430 nM

SMILES: CC(C)(C)OC(=O)N1CC=C(c2cnc3ccn(Cc4ccc(C(=O)NO)cc4)c3c2)CC1 [Compound 786, tert-butyl 4-(1-(4-(hydroxycarbamoyl)benzyl)-1H-pyrrolo[3,2-b]pyridin-6-yl)-5,6-dihydropyridine-1(2H)-carboxylate]
- IC50 (HDAC6 human recombinant): 5.7 nM
- IC50 (HDAC1): 620 nM

SMILES: O=C(NO)c1ccc(Cn2ccc3cc(C4CCN(Cc5cccc(CN6CCOCC6)c5)CC4)cnc32)cc1 [Compound 878, N-hydroxy-4-((5-(1-(3-(morpholinomethyl)benzyl)piperidin-4-yl)-1H-pyrrolo[2,3-b]pyridin-1-yl)methyl)benzamide]
- IC50 (HDAC6 human recombinant): 6.4 nM
- IC50 (HDAC1): 1120 nM
